# The supplement of paper PMC10307832
# Tests used:
# Test in all cases: relative viability (nuclei count vs DMSO), 5 days (fraction); higher = more cells survive
# RERF-LC-KJ = tested on: RERF-LC-KJ
# Method in brief: (§1)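 Relative viability was taken as the ratio of nuclei in treated wells to nuclei in vehicle wells. Lung cancer cell lines in 1536-well plates received compounds by pin tool one day after seeding, either one drug alone or a fixed anchor-drug dose plus five library-drug doses (not always all listed) in √10 steps. Nuclei were counted on 4× images after 5 days of treatment, and values are medians of duplicate plates.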
# NCI-H596 = tested on: NCI-H596
# Method in brief: as §1
# NCI-H1993 = tested on: NCI-H1993
# Method in brief: as §1
# COR-L 105 = tested on: COR-L 105
# Method in brief: as §1
# NCI-H1651 = tested on: NCI-H1651
# Method in brief: as §1
# NCI-H2087 = tested on: NCI-H2087
# Method in brief: as §1
# HOP-62 = tested on: HOP-62
# Method in brief: as §1
# NCI-H650 = tested on: NCI-H650
# Method in brief: as §1
# NCI-H2170 = tested on: NCI-H2170
# Method in brief: as §1
# LXF-289 = tested on: LXF-289
# Method in brief: as §1
# COR-L23 = tested on: COR-L23
# Method in brief: as §1
# NCI-H2085 = tested on: NCI-H2085
# Method in brief: as §1
# NCI-H2342 = tested on: NCI-H2342
# Method in brief: as §1
# NCI-H1975 = tested on: NCI-H1975
# Method in brief: as §1
# NCI-H2023 = tested on: NCI-H2023
# Method in brief: as §1
# PC-14 = tested on: PC-14
# Method in brief: as §1
# NCI-H3122 = tested on: NCI-H3122
# Method in brief: as §1
# NCI-H647 = tested on: NCI-H647
# Method in brief: as §1
# SK-MES-1 = tested on: SK-MES-1
# Method in brief: as §1
# LCLC-103H = tested on: LCLC-103H
# Method in brief: as §1
# A-427 = tested on: A-427
# Method in brief: as §1
# EPLC-272H = tested on: EPLC-272H
# Method in brief: as §1
# NCI-H1395 = tested on: NCI-H1395
# Method in brief: as §1
structure (smiles),measurement,setting,value
CCCCCCCCCCCC1=C(O)C(=O)C=C(O)C1=O [Embelin] + Nc1ncn([C@H]2C[C@H](O)[C@@H](CO)O2)c(=O)n1 [Decitabine] (partner 2 µM),relative viability,RERF-LC-KJ; first compound 0.08 µM,0.775
same,relative viability,RERF-LC-KJ; first compound 0.8 µM,0.652
same,relative viability,RERF-LC-KJ; first compound 2.53 µM,0.774
same,relative viability,RERF-LC-KJ; first compound 8 µM,0.514
same,relative viability,NCI-H596; first compound 0.08 µM,0.945
same,relative viability,NCI-H596; first compound 0.8 µM,0.958
same,relative viability,NCI-H596; first compound 2.53 µM,1.19
same,relative viability,NCI-H596; first compound 8 µM,1.06
same,relative viability,NCI-H1993; first compound 0.08 µM,0.481
same,relative viability,NCI-H1993; first compound 0.8 µM,0.608
same,relative viability,NCI-H1993; first compound 2.53 µM,0.627
same,relative viability,NCI-H1993; first compound 8 µM,0.548
same,relative viability,COR-L 105; first compound 0.08 µM,0.676
same,relative viability,COR-L 105; first compound 0.8 µM,0.715
same,relative viability,COR-L 105; first compound 2.53 µM,0.657
same,relative viability,COR-L 105; first compound 8 µM,0.751
same,relative viability,NCI-H1651; first compound 0.08 µM,0.634
same,relative viability,NCI-H1651; first compound 0.8 µM,0.67
same,relative viability,NCI-H1651; first compound 2.53 µM,0.867
same,relative viability,NCI-H1651; first compound 8 µM,0.659
same,relative viability,NCI-H2087; first compound 0.08 µM,0.278
same,relative viability,NCI-H2087; first compound 0.8 µM,0.295
same,relative viability,NCI-H2087; first compound 2.53 µM,0.361
same,relative viability,NCI-H2087; first compound 8 µM,0.225
same,relative viability,HOP-62; first compound 0.08 µM,0.193
same,relative viability,HOP-62; first compound 0.8 µM,0.22
same,relative viability,HOP-62; first compound 2.53 µM,0.205
same,relative viability,HOP-62; first compound 8 µM,0.19
same,relative viability,NCI-H650; first compound 0.08 µM,0.322
same,relative viability,NCI-H650; first compound 0.8 µM,0.371
same,relative viability,NCI-H650; first compound 2.53 µM,0.337
same,relative viability,NCI-H650; first compound 8 µM,0.297
same,relative viability,NCI-H2170; first compound 0.08 µM,0.514
same,relative viability,NCI-H2170; first compound 0.8 µM,0.446
same,relative viability,NCI-H2170; first compound 2.53 µM,0.506
same,relative viability,NCI-H2170; first compound 8 µM,0.456
same,relative viability,LXF-289; first compound 0.08 µM,0.396
same,relative viability,LXF-289; first compound 0.8 µM,0.419
same,relative viability,LXF-289; first compound 2.53 µM,0.455
same,relative viability,LXF-289; first compound 8 µM,0.352
same,relative viability,COR-L23; first compound 0.08 µM,0.454
same,relative viability,COR-L23; first compound 0.8 µM,0.479
same,relative viability,COR-L23; first compound 2.53 µM,0.433
same,relative viability,COR-L23; first compound 8 µM,0.393
same,relative viability,NCI-H2085; first compound 0.08 µM,0.538
same,relative viability,NCI-H2085; first compound 0.8 µM,0.602
same,relative viability,NCI-H2085; first compound 2.53 µM,0.531
same,relative viability,NCI-H2085; first compound 8 µM,0.504
same,relative viability,NCI-H2342; first compound 0.08 µM,0.71
same,relative viability,NCI-H2342; first compound 0.8 µM,0.722
same,relative viability,NCI-H2342; first compound 2.53 µM,0.842
same,relative viability,NCI-H2342; first compound 8 µM,0.741
same,relative viability,NCI-H1975; first compound 0.08 µM,0.377
same,relative viability,NCI-H1975; first compound 0.8 µM,0.432
same,relative viability,NCI-H1975; first compound 2.53 µM,0.37
same,relative viability,NCI-H1975; first compound 8 µM,0.586
same,relative viability,NCI-H2023; first compound 0.08 µM,0.249
same,relative viability,NCI-H2023; first compound 0.8 µM,0.234
same,relative viability,NCI-H2023; first compound 2.53 µM,0.247
same,relative viability,NCI-H2023; first compound 8 µM,0.155
same,relative viability,PC-14; first compound 0.08 µM,0.254
same,relative viability,PC-14; first compound 0.8 µM,0.21
same,relative viability,PC-14; first compound 2.53 µM,0.163
same,relative viability,PC-14; first compound 8 µM,0.209
same,relative viability,NCI-H3122; first compound 0.08 µM,0.385
same,relative viability,NCI-H3122; first compound 0.8 µM,0.446
same,relative viability,NCI-H3122; first compound 2.53 µM,0.419
same,relative viability,NCI-H3122; first compound 8 µM,0.397
same,relative viability,NCI-H647; first compound 0.08 µM,0.454
same,relative viability,NCI-H647; first compound 0.8 µM,0.379
same,relative viability,NCI-H647; first compound 2.53 µM,0.488
same,relative viability,NCI-H647; first compound 8 µM,0.277
same,relative viability,SK-MES-1; first compound 0.08 µM,0.436
same,relative viability,SK-MES-1; first compound 0.8 µM,0.396
same,relative viability,SK-MES-1; first compound 2.53 µM,0.361
same,relative viability,SK-MES-1; first compound 8 µM,0.266
same,relative viability,LCLC-103H; first compound 0.08 µM,0.754
same,relative viability,LCLC-103H; first compound 0.8 µM,0.755
same,relative viability,LCLC-103H; first compound 2.53 µM,0.737
same,relative viability,LCLC-103H; first compound 8 µM,0.718
same,relative viability,A-427; first compound 0.08 µM,0.494
same,relative viability,A-427; first compound 0.8 µM,0.555
same,relative viability,A-427; first compound 2.53 µM,0.561
same,relative viability,A-427; first compound 8 µM,0.54
same,relative viability,EPLC-272H; first compound 0.08 µM,0.363
same,relative viability,EPLC-272H; first compound 0.8 µM,0.401
same,relative viability,EPLC-272H; first compound 2.53 µM,0.355
same,relative viability,EPLC-272H; first compound 8 µM,0.367
same,relative viability,NCI-H1395; first compound 0.08 µM,0.712
same,relative viability,NCI-H1395; first compound 0.8 µM,0.872
same,relative viability,NCI-H1395; first compound 2.53 µM,0.699
same,relative viability,NCI-H1395; first compound 8 µM,0.698
